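These data come from cells grown in 96-well plates and exposed to compound for 48 hours at five concentrations. TGI: total growth inhibition.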
How the values were obtained:
Assay in all cases: DTP human tumour cell line panel, 48 h
[1] = test system: K-562 leukemia
[2] = test system: HCT-116 colon
[3] = test system: OVCAR-4 ovarian
[4] = test system: HCC-2998 colon
[5] = test system: SK-MEL-5 melanoma
[6] = test system: SF-268 CNS
[7] = test system: BT-549 breast
[8] = test system: MOLT-4 leukemia
[9] = test system: SF-295 CNS
[10] = test system: OVCAR-8 ovarian
[11] = test system: NCI-H23 lung
[12] = test system: HOP-92 NSCLC
[13] = test system: LOX IMVI melanoma
[14] = test system: UACC-257 melanoma
[15] = test system: OVCAR-5 ovarian
[16] = test system: 786-0 renal
[17] = test system: TK-10 renal
[18] = test system: HL-60(TB) leukemia
[19] = test system: HCT-15 colon
[20] = test system: SR leukemia
[21] = test system: MDA-N
[22] = test system: NCI-H460 lung
[23] = test system: SK-OV-3 ovarian
[24] = test system: A498 renal
[25] = test system: M14 melanoma
[26] = test system: NCI-H522 lung
[27] = test system: HS 578T breast
[28] = test system: U251 CNS
[29] = test system: CAKI-1 renal
[30] = test system: SNB-19 CNS
[31] = test system: UACC-62 melanoma
[32] = test system: CCRF-CEM leukemia
[33] = test system: T-47D breast
[34] = test system: DU-145 prostate
[35] = test system: SN12C renal
[36] = test system: KM12 colon
[37] = test system: MCF7 breast
[38] = test system: SW-620 colon
[39] = test system: SNB-75 CNS
[40] = test system: UO-31 renal
[41] = test system: PC-3 prostate
[42] = test system: MDA-MB-231 breast
[43] = test system: SK-MEL-2 melanoma
[44] = test system: COLO 205 colon
[45] = test system: ACHN renal
[46] = test system: MDA-MB-435
[47] = test system: OVCAR-3 ovarian
[48] = test system: RXF 393 renal
[49] = test system: HOP-62 NSCLC
[50] = test system: SF-539 CNS
[51] = test system: NCI/ADR-RES ovarian
[52] = test system: A549 NSCLC
[53] = test system: MALME-3M melanoma
[54] = test system: NCI-H226 lung
[55] = test system: IGROV1 ovarian
[56] = test system: HT29 colon
[57] = test system: SK-MEL-28 melanoma
[58] = test system: RPMI-8226 leukemia

## CC1OC(O[C@H]2CC[C@]3(C)[C@H]4CC=C5[C@@H]6[C@@H](C)[C@H](C)CC[C@]6(C(=O)OC6OC(CO)C(O)C(O)C6O)CC[C@@]5(C(=O)O)[C@]4(C)CC[C@H]3C2(C)C)C(O)C(O)C1O (some centres undefined)
[1]
  TGI: > 100 µM
[2]
  TGI: > 100 µM
[3]
  TGI: > 100 µM
[4]
  TGI: > 100 µM
[5]
  TGI: > 100 µM
[6]
  TGI: > 100 µM
[7]
  TGI: > 100 µM
[8]
  TGI: > 100 µM
[9]
  TGI: > 100 µM
[10]
  TGI: > 100 µM
[11]
  TGI: > 100 µM
[12]
  TGI: > 100 µM
[13]
  TGI: > 100 µM
[14]
  TGI: > 100 µM
[15]
  TGI: > 100 µM
[16]
  TGI: > 100 µM
[17]
  TGI: > 100 µM
[18]
  TGI: > 100 µM
[19]
  TGI: > 100 µM
[20]
  TGI: > 100 µM
[21]
  TGI: > 100 µM
[22]
  TGI: > 100 µM
[23]
  TGI: > 100 µM
[24]
  TGI: > 100 µM
[25]
  TGI: > 100 µM
[26]
  TGI: > 100 µM
[27]
  TGI: > 100 µM
[28]
  TGI: > 100 µM
[29]
  TGI: > 100 µM
[30]
  TGI: > 100 µM
[31]
  TGI: > 100 µM
[32]
  TGI: > 100 µM
[33]
  TGI: > 100 µM
[34]
  TGI: > 100 µM
[35]
  TGI: > 100 µM
[36]
  TGI: > 100 µM
[37]
  TGI: > 100 µM
[38]
  TGI: > 100 µM
[39]
  TGI: > 100 µM
[40]
  TGI: > 100 µM
[41]
  TGI: > 100 µM
[42]
  TGI: > 100 µM
[43]
  TGI: > 100 µM
[44]
  TGI: > 100 µM
[45]
  TGI: > 100 µM
[46]
  TGI: > 100 µM
[47]
  TGI: > 100 µM
[48]
  TGI: > 100 µM
[49]
  TGI: > 100 µM
[50]
  TGI: > 100 µM
[51]
  TGI: > 100 µM

## CC(=O)OC1C[C@@H](C)C2(CC(c3ccoc3)OC2=O)C2CCC(O)C3(CO3)C12CO (some centres undefined)
[1]
  TGI: > 100 µM
[2]
  TGI: > 100 µM
[3]
  TGI: > 100 µM
[4]
  TGI: > 100 µM
[5]
  TGI: > 100 µM
[6]
  TGI: > 100 µM
[7]
  TGI: > 100 µM
[8]
  TGI: > 100 µM
[9]
  TGI: > 100 µM
[10]
  TGI: > 100 µM
[11]
  TGI: > 100 µM
[12]
  TGI: > 100 µM
[13]
  TGI: > 100 µM
[14]
  TGI: > 100 µM
[15]
  TGI: > 100 µM
[16]
  TGI: > 100 µM
[52]
  TGI: > 100 µM
[17]
  TGI: > 100 µM
[18]
  TGI: > 100 µM
[53]
  TGI: > 100 µM
[19]
  TGI: > 100 µM
[20]
  TGI: > 100 µM
[21]
  TGI: > 100 µM
[54]
  TGI: > 100 µM
[22]
  TGI: > 100 µM
[24]
  TGI: > 100 µM
[25]
  TGI: > 100 µM
[26]
  TGI: > 100 µM
[27]
  TGI: > 100 µM
[28]
  TGI: > 100 µM
[55]
  TGI: > 100 µM
[29]
  TGI: > 100 µM
[30]
  TGI: > 100 µM
[31]
  TGI: > 100 µM
[56]
  TGI: > 100 µM
[32]
  TGI: > 100 µM
[33]
  TGI: > 100 µM
[34]
  TGI: > 100 µM
[57]
  TGI: > 100 µM
[35]
  TGI: > 100 µM
[36]
  TGI: > 100 µM
[37]
  TGI: > 100 µM
[38]
  TGI: > 100 µM
[39]
  TGI: > 100 µM
[40]
  TGI: > 100 µM
[41]
  TGI: > 100 µM
[42]
  TGI: > 100 µM
[43]
  TGI: > 100 µM
[44]
  TGI: > 100 µM
[45]
  TGI: > 100 µM
[46]
  TGI: > 100 µM
[47]
  TGI: > 100 µM
[48]
  TGI: > 100 µM
[58]
  TGI: > 100 µM
[49]
  TGI: > 100 µM
[50]
  TGI: > 100 µM
[51]
  TGI: > 100 µM

## COc1cc(S(=O)(=O)Nc2nc(-c3ccc(N4C(=O)/C(=C\c5cccs5)N=C4c4ccccc4)cc3)cs2)ccc1Cl
[1]
  TGI: > 100 µM
[2]
  TGI: > 100 µM
[3]
  TGI: > 100 µM
[5]
  TGI: > 100 µM
[6]
  TGI: 59 µM
[7]
  TGI: 83.4 µM
[8]
  TGI: > 100 µM
[9]
  TGI: > 100 µM
[10]
  TGI: > 100 µM
[11]
  TGI: > 100 µM
[12]
  TGI: 89.8 µM
[13]
  TGI: > 100 µM
[14]
  TGI: > 100 µM
[15]
  TGI: > 100 µM
[16]
  TGI: > 100 µM
[52]
  TGI: > 100 µM
[17]
  TGI: > 100 µM
[18]
  TGI: > 100 µM
[53]
  TGI: 55.5 µM
[19]
  TGI: > 100 µM
[20]
  TGI: > 100 µM
[21]
  TGI: > 100 µM
[54]
  TGI: > 100 µM
[22]
  TGI: > 100 µM
[23]
  TGI: > 100 µM
[24]
  TGI: > 100 µM
[25]
  TGI: > 100 µM
[26]
  TGI: 83.8 µM
[27]
  TGI: 63.9 µM
[28]
  TGI: > 100 µM
[55]
  TGI: > 100 µM
[29]
  TGI: > 100 µM
[30]
  TGI: > 100 µM
[31]
  TGI: 65.5 µM
[56]
  TGI: > 100 µM
[32]
  TGI: > 100 µM
[33]
  TGI: > 100 µM
[34]
  TGI: > 100 µM
[57]
  TGI: > 100 µM
[35]
  TGI: > 100 µM
[36]
  TGI: > 100 µM
[37]
  TGI: > 100 µM
[38]
  TGI: > 100 µM
[39]
  TGI: > 100 µM
[40]
  TGI: > 100 µM
[41]
  TGI: > 100 µM
[42]
  TGI: 56.6 µM
[43]
  TGI: 64.8 µM
[44]
  TGI: > 100 µM
[45]
  TGI: > 100 µM
[46]
  TGI: > 100 µM
[47]
  TGI: > 100 µM
[48]
  TGI: > 100 µM
[49]
  TGI: > 100 µM
[50]
  TGI: > 100 µM
[51]
  TGI: > 100 µM
